From patent US20200031825A1, “HETEROAROMATIC-FUSED IMIDAZOLYL AMIDES, COMPOSITIONS AND USES THEREOF AS STING AGONISTS” (Trillium Therapeutics Inc., priority 2018, published 2020) come the findings set out here.

Molecules are shown by their SMILES. Counter-ions that a name gives are not always drawn. Like-named read-outs stand apart in the source and are kept apart here.

Holding throughout (assay type): cell-based
In assay [1] the target is hSTING-wt (Homo sapiens, UniProt Q86WV6). The experiment in a line: Cellular Functional Assay I: ISRE-SEAP reporter in HEK-293T-Dual Null cells transfected with hSTING-wt. As to conditions: HEK-293T-Dual Null, hSTING-wt.
Assay [2] concerns the target hSTING-H232 (Homo sapiens, UniProt Q86WV6). The experiment in a line: Cellular Functional Assay I: ISRE-SEAP reporter in HEK-293T-Dual Null cells transfected with hSTING-H232. As to conditions: HEK-293T-Dual Null, hSTING-H232.
The target of assay [3] is hSTING-HAQ (Homo sapiens, UniProt Q86WV6, G230A/H232R/R293Q/R71H). In words: Cellular Functional Assay I: ISRE-SEAP reporter in HEK-293T-Dual Null cells transfected with hSTING-HAQ. As to conditions: HEK-293T-Dual Null, hSTING-HAQ.
Assay [4] deals with T1, hSTING-AQ (Homo sapiens, UniProt Q86WV6, G230A/R293Q).
T1 construct: expressed in transfected cells
In words: Cellular Functional Assay I: ISRE-SEAP reporter, hSTING-AQ allele.

In assay [5] the target is T2, hSTING-Q (Homo sapiens, UniProt Q86WV6, R293Q).
T2 construct: expressed in transfected cells
The experiment in a line: Cellular Functional Assay I: ISRE-SEAP reporter, hSTING-Q allele.

The target in assay [6] is T3, mSTING-wt (Mus musculus, UniProt Q3TBT3).
T3 sequence (Q3TBT3 1-378): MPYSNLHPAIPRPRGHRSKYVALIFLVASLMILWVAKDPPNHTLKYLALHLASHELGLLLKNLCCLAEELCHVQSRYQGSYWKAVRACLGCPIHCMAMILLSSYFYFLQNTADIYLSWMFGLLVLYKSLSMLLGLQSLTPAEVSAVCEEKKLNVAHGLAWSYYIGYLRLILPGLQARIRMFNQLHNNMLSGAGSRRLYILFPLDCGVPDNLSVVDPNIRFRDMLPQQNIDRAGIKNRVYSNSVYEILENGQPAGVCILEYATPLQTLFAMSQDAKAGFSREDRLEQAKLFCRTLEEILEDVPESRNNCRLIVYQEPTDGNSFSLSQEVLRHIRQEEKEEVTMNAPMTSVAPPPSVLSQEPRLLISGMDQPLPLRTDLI
The experiment in a line: Cellular Functional Assay I: ISRE-SEAP reporter in HEK-293T-Dual Null cells transfected with mouse STING.

Where [7] appears, read: SEAP reporter, HEK-293T-Dual Null, mSTING-wt, read-out: EC50 mSTING-wt.

T1 sequence (Q86WV6 whole entry G230A/H232R/R293Q): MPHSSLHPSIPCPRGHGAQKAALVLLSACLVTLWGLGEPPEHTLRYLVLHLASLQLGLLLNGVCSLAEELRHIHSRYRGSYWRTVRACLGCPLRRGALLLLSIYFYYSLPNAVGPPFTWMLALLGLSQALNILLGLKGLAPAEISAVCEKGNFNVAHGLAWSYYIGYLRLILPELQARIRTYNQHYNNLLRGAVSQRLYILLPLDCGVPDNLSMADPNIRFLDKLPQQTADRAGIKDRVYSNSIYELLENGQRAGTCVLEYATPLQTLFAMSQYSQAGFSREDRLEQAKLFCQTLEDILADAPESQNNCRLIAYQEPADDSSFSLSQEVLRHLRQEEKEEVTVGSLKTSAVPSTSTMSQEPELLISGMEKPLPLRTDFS
hSTING-H232, sequence (Q86WV6 whole entry): as the sequence (Q86WV6 whole entry G230A/H232R/R293Q) above, with A230G, R232H, Q293R counted along it
hSTING-HAQ, sequence (Q86WV6 whole entry R71H/G230A/H232R/R293Q): as the sequence (Q86WV6 whole entry G230A/H232R/R293Q) above, with R71H counted along it
hSTING-wt, sequence (Q86WV6 whole entry H232R): as the sequence (Q86WV6 whole entry G230A/H232R/R293Q) above, with A230G, Q293R counted along it
T2 sequence (Q86WV6 whole entry R293Q): as the sequence (Q86WV6 whole entry G230A/H232R/R293Q) above, with A230G, R232H counted along it

For `CCn1nc(C)cc1C(=O)Nc1nc2cc(C(N)=O)cc(C)c2n1C/C=C/Cn1c(NC(=O)c2cnc(C)s2)nc2cc(C(N)=O)cnc21` [Compound C, N-[6-carbamoyl-3-[(E)-4-[5-carbamoyl-2-[(2-ethyl-5-methyl-pyrazole-3-carbonyl)amino]-7-methyl-benzimidazol-1-yl]but-2-enyl]imidazo[4,5-b]pyridin-2-yl]-2-methyl-thiazole-5-carboxamide Hydrochloride], the EC50 in assay [1] is 1 to 500 nM; in assay [2], 1 to 500 nM; in assay [3], over 500 nM; in assay [4] it was 1 to 500 nM; in assay [5], 1 to 500 nM; in assay [6] (setting [7]), over 500 nM.
`CCn1nc(C)cc1C(=O)Nc1nc2cc(C(N)=O)cnc2n1C/C=C/CNC(=O)OC(C)(C)C` [Compound D, tert-butyl N-[(E)-4-[6-carbamoyl-2-[(2-ethyl-5-methyl-pyrazole-3-carbonyl)amino]imidazo[4,5-b]pyridin-3-yl]but-2-enyl]carbamate]: the EC50 in assay [1], in assay [2], in assay [3], in assay [4], in assay [5] and in assay [6] (setting [7]) was over 500 nM in each case.
Turning to `CCn1nc(C)cc1C(=O)Nc1nc2cc(C(N)=O)cnc2n1CCCCNC(=O)OC(C)(C)C` [Compound E, tert-butyl N-[4-[6-carbamoyl-2-[(2-ethyl-5-methyl-pyrazole-3-carbonyl)amino]imidazo[4,5-b]pyridin-3-yl]butyl]carbamate], the EC50 in assay [1], in assay [2], in assay [3], in assay [4], in assay [5] and in assay [6] (setting [7]) was over 500 nM each time.
Consider `CCn1nc(C)cc1C(=O)Nc1nc2cc(C(N)=O)cnc2n1C/C=C/CNC(=O)OCc1ccccc1` [Compound F, benzyl N-[(E)-4-[6-carbamoyl-2-[(2-ethyl-5-methyl-pyrazole-3-carbonyl)amino]imidazo[4,5-b]pyridin-3-yl]but-2-enyl]carbamate], for which the EC50 in assay [1], in assay [2], in assay [3], in assay [4], in assay [5] and in assay [6] (setting [7]) was over 500 nM each time.
Turning to `CCn1nc(C)cc1C(=O)Nc1nc2cc(C(N)=O)cnc2n1CCCCNC(=O)OCc1ccccc1` [Compound G, benzyl N-[4-[6-carbamoyl-2-[(2-ethyl-5-methyl-pyrazole-3-carbonyl)amino]imidazo[4,5-b]pyridin-3-yl]butyl]carbamate], the EC50 in assay [1], in assay [2], in assay [3], in assay [4], in assay [5] and in assay [6] (setting [7]) was over 500 nM throughout.
`CCn1nc(C)cc1C(=O)Nc1nc2cc(C(N)=O)sc2n1C/C=C/CNC(=O)OC(C)(C)C` [Compound H, tert-butyl N-[(E)-4-[5-carbamoyl-2-[(2-ethyl-5-methyl-pyrazole-3-carbonyl)amino]thieno[2,3-d]imidazol-3-yl]but-2-enyl]carbamate]: the 50% effective concentration (EC50) in assay [1], in assay [2], in assay [3], in assay [4], in assay [5] and in assay [6] (setting [7]) was over 500 nM in each case.
Consider `CCn1nc(C)cc1C(=O)Nc1nc2cc(C(N)=O)cnc2n1C/C=C/Cn1c(NC(=O)c2cc(C)nn2CC)nc2cc(C(N)=O)cnc21` [Compound L, 3-[(E)-4-[6-carbamoyl-2-[(2-ethyl-5-methyl-pyrazole-3-carbonyl)amino]imidazo[4,5-b]pyridin-3-yl]but-2-enyl]-2-[(2-ethyl-5-methyl-pyrazole-3-carbonyl)amino]imidazo[4,5-b]pyridine-6-carboxamide], for which the EC50 was 1 to 500 nM in assay [1]; 1 to 500 nM in assay [2]; over 500 nM in assay [3]; over 500 nM in assay [4]; 1 to 500 nM in assay [5]; 1 to 500 nM in assay [6] (setting [7]).
Take `CCn1nc(C)cc1C(=O)Nc1nc2cc(C(N)=O)ccc2n1C/C=C/Cn1c(NC(=O)c2cc(C)nn2CC)nc2cc(C(N)=O)sc21` [Compound M, 3-[(E)-4-[5-carbamoyl-2-[(2-ethyl-5-methyl-pyrazole-3-carbonyl)amino]benzimidazol-1-yl]but-2-enyl]-2-[(2-ethyl-5-methyl-pyrazole-3-carbonyl)amino]thieno[2,3-d]imidazole-5-carboxamide Tetrahydrochloride]: the 50% effective concentration (EC50) is 1 to 500 nM in assay [1]; 1 to 500 nM in assay [2]; over 500 nM in assay [3]; over 500 nM in assay [4]; 1 to 500 nM in assay [5]; 1 to 500 nM in assay [6] (setting [7]).
With `CCn1nc(C)cc1C(=O)Nc1nc2cc(C(N)=O)sc2n1C/C=C/Cn1c(NC(=O)c2cc(C)nn2CC)nc2cc(C(N)=O)cc(OCCOC(F)F)c21` [Compound N, 3-[(E)-4-[5-carbamoyl-7-[2-(difluoromethoxy)ethoxy]-2-[(2-ethyl-5-methyl-pyrazole-3-carbonyl)amino]benzimidazol-1-yl]but-2-enyl]-2-[(2-ethyl-5-methyl-pyrazole-3-carbonyl)amino]thieno[2,3-d]imidazole-5-carboxamide Tetrahydrochloride], the EC50 in assay [1] was under 1 nM; in assay [2] it was under 1 nM; in assay [3], over 500 nM; in assay [4], over 500 nM; in assay [5] it was 1 to 500 nM; in assay [6] (setting [7]) it was 1 to 500 nM.
Consider `CCn1nc(C)cc1C(=O)Nc1nc2cc(C(N)=O)sc2n1C/C=C/Cn1c(NC(=O)c2cc(C)nn2CC)nc2cc(C(N)=O)cc(OCCCN(C)C)c21` [Compound O, 3-[(E)-4-[5-carbamoyl-7-[3-(dimethylamino)propoxy]-2-[(2-ethyl-5-methyl-pyrazole-3-carbonyl)amino]benzimidazol-1-yl]but-2-enyl]-2-[(2-ethyl-5-methyl-pyrazole-3-carbonyl)amino]thieno[2,3-d]imidazole-5-carboxamide], for which the EC50 in assay [1] and in assay [2] was 1 to 500 nM in each case.
`CCn1nc(C)cc1C(=O)Nc1nc2cc(C(N)=O)cnc2n1C/C=C/Cn1c(NC(=O)c2cc(C)nn2CC)nc2cc(C(N)=O)cc(OCCCN(C)C)c21` [Compound P, 3-[(E)-4-[5-carbamoyl-7-[3-(dimethylamino)propoxy]-2-[(2-ethyl-5-methyl-pyrazole-3-carbonyl)amino]benzimidazol-1-yl]but-2-enyl]-2-[(2-ethyl-5-methyl-pyrazole-3-carbonyl)amino]imidazo[4,5-b]pyridine-6-carboxamide]: the EC50 in assay [1], in assay [2], in assay [3], in assay [4], in assay [5] and in assay [6] (setting [7]) was 1 to 500 nM throughout.
Regarding `CCn1nc(C)cc1C(=O)Nc1nc2cc(C(N)=O)sc2n1C/C=C/Cn1c(NC(=O)c2cc(C)nn2CC)nc2cc(C(N)=O)cc(OCCCNC)c21` [Compound Q, 3-[(E)-4-[5-carbamoyl-2-[(2-ethyl-5-methyl-pyrazole-3-carbonyl)amino]-7-[3-(methylamino)propoxy]benzimidazol-1-yl]but-2-enyl]-2-[(2-ethyl-5-methyl-pyrazole-3-carbonyl)amino]thieno[2,3-d]imidazole-5-carboxamide], the EC50 in assay [1] and in assay [2] was 1 to 500 nM in each case.
On to `CCn1nc(C)cc1C(=O)Nc1nc2cc(C(N)=O)cnc2n1C/C=C/Cn1c(NC(=O)c2cc(C)nn2CC)nc2cc(C(N)=O)cc(OCCCO)c21` [Compound R], for which the EC50 in assay [1], in assay [2], in assay [3], in assay [4], in assay [5] and in assay [6] was 1 to 500 nM each time.
Take `CCn1nc(C)cc1C(=O)Nc1nc2cc(C(N)=O)cnc2n1C/C=C/Cn1c(NC(=O)c2cc(C)nn2CC)nc2cc(C(N)=O)cc(OCCCNC)c21` [Compound S, 3-[(E)-4-[5-carbamoyl-2-[(2-ethyl-5-methyl-pyrazole-3-carbonyl)amino]-7-[3-(methylamino)propoxy]benzimidazol-1-yl]but-2-enyl]-2-[(2-ethyl-5-methyl-pyrazole-3-carbonyl)amino]imidazo[4,5-b]pyridine-6-carboxamide]: the EC50 in assay [1], in assay [2], in assay [3], in assay [4], in assay [5] and in assay [6] (setting [7]) was 1 to 500 nM each time.
